Laboratory results taken from patent publication US20160130278A1 (TAISHO PHARMACEUTICAL CO., LTD, priority 2013, published 2016).

biological target: T1, human type 1 glycine transporter (GlyT1) (Homo sapiens, UniProt P48067); test: Glycine uptake inhibition experiment ([3H]glycine uptake); type: cell-based; details: GlyT1
T1 construct: T98G cells (glioma cells) expressing human type 1 glycine transporter (GlyT1) were used
T1 sequence (P48067 1-706): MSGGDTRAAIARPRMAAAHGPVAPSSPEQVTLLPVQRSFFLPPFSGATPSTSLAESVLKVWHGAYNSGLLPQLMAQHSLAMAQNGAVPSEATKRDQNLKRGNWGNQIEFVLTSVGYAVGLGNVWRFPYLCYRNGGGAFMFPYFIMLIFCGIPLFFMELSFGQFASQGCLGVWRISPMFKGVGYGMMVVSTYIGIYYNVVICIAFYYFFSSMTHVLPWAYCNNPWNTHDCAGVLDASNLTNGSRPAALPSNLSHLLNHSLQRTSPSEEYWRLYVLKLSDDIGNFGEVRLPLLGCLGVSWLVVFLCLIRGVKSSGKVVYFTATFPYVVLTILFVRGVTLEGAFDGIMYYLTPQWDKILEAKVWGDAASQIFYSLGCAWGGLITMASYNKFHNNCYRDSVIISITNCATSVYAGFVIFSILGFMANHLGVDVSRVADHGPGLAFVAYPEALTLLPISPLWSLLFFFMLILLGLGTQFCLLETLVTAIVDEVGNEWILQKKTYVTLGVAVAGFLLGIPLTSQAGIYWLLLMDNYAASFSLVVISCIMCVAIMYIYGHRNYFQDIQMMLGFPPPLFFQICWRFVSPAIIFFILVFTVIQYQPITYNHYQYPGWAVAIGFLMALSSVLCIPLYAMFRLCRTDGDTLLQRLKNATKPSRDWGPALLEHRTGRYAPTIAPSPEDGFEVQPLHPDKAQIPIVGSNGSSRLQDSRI
In short: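 T98G glioma cells expressing human GlyT1 were pretreated 10 min with compound in HEPES buffer pH 7.4 (0.2% BSA), then incubated with compound plus 250 nM final [3H]glycine for 15 min at room temperature. Intracellular radioactivity was counted after NaOH lysis; 10 μM ALX5407 defined non-specific uptake. IC50 came from 10^−9–10^−5 M curves.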

Point of comparison: `O=C(NC(c1cccc(F)c1Cl)[C@]1(O)CC[C@@H](F)CC1)c1ncc(C(F)(F)F)cc1Cl` (single isomer, unassigned) [Compound 320, 3-chloro-N-[(2-chloro-3-fluorophenyl)(cis-4-fluoro-1-hydroxycyclohexyl)methyl]-5-(trifluoromethyl)pyridine-2-carboxamide], IC50 1000 nM. Against it:
- O=C(NC(c1cccc(F)c1Cl)[C@]1(O)CC[C@@H](F)CC1)c1cc(-n2nccn2)ccc1Cl (single isomer, unassigned) [Compound 336, 2-chloro-N-[(2-chloro-3-fluorophenyl)(cis-4-fluoro-1-hydroxycyclohexyl)methyl]-5-(2H-1,2,3-triazol-2-yl)benzamide] — within 1.5-fold, 690 nM
- O=C(NC(c1cccc(F)c1Cl)[C@]1(O)CC[C@@H](F)CC1)c1ccc(C(F)(F)F)cc1-n1cccn1 (single isomer, unassigned) [Compound 390, N-[(2-chloro-3-fluorophenyl)(cis-4-fluoro-1-hydroxycyclohexyl)methyl]-2-(1H-pyrazol-1-yl)-4-(trifluoromethyl)benzamide] — 7.7-fold lower, 130 nM
- O=C(NC(c1ncccc1Cl)[C@]1(O)CC[C@@H](F)CC1)c1nccc(C(F)(F)F)c1Cl (single isomer, unassigned) [Compound 361, 3-chloro-N-[(3-chloropyridin-2-yl)(cis-4-fluoro-1-hydroxycyclohexyl)methyl]-4-(trifluoromethyl)pyridine-2-carboxamide] — 3.3-fold lower, 300 nM
- O=C(NC(c1cccc(-n2cccn2)c1)C1(O)CCCC1)c1nccc(C(F)(F)F)c1Cl (single isomer, unassigned) [Compound 82, 3-chloro-N-{(1-hydroxycyclopentyl)[3-(1H-pyrazol-1-yl)phenyl]methyl}-4-(trifluoromethyl)pyridine-2-carboxamide] — 11-fold lower, 89 nM
- O=C(NC(c1cccc(F)c1Cl)[C@]1(O)CC[C@@H](F)CC1)c1cccc(C(F)(F)F)c1Cl (single isomer, unassigned) [Compound 246, 2-chloro-N-[(2-chloro-3-fluorophenyl)(cis-4-fluoro-1-hydroxycyclohexyl)methyl]-3-(trifluoromethyl)benzamide] — 10-fold lower, 100 nM
- N#Cc1cccc(C(NC(=O)c2cccc(C(F)(F)F)c2Cl)C2(O)CCCC2)c1 (centres unmarked) [Compound 8, 2-chloro-N-[(3-cyanophenyl)(1-hydroxycyclopentyl)methyl]-3-(trifluoromethyl)benzamide] — 2.5-fold lower, 400 nM
- O=C(NC(c1cccc(Br)c1)C1(O)CCC(F)(F)CC1)c1nccc(C(F)(F)F)c1Cl (centres unmarked) [Compound 85, N-[(3-bromophenyl)(4,4-difluoro-1-hydroxycyclohexyl)methyl]-3-chloro-4-(trifluoromethyl)pyridine-2-carboxamide] — 3.1-fold lower, 320 nM
- COc1cccc(Cl)c1C(=O)NC(c1cccc(F)c1Cl)[C@]1(O)CC[C@@H](F)CC1 (single isomer, unassigned) [Compound 300, 2-chloro-N-[(2-chloro-3-fluorophenyl)(cis-4-fluoro-1-hydroxycyclohexyl)methyl]-6-methoxybenzamide] — within 1.5-fold, 1200 nM
- CCn1cc(-c2cccc(C(NC(=O)c3c(Cl)ccc(C(F)(F)F)c3Cl)C3(O)CCC(F)(F)CC3)c2)cn1 (single isomer, unassigned) [Compound 222, 2,6-dichloro-N-{(4,4-difluoro-1-hydroxycyclohexyl)[3-(1-ethyl-1H-pyrazol-4-yl)phenyl]methyl}-3-(trifluoromethyl)benzamide] — 5.3-fold lower, 190 nM
- CCn1cc(-c2cccc(C(NC(=O)c3cc(C(F)(F)F)ccc3Cl)C3(O)CCC(F)(F)CC3)c2)cn1 (centres unmarked) [Compound 180, 2-chloro-N-{(4,4-difluoro-1-hydroxycyclohexyl)[3-(1-ethyl-1H-pyrazol-4-yl)phenyl]methyl}-5-(trifluoromethyl)benzamide] — 4.8-fold lower, 210 nM
- O=C(NC(c1cccc(Cl)c1)C1(O)CCC(F)(F)CC1)c1ccnc(C(F)(F)F)c1Cl (single isomer, unassigned) [Compound 167, 3-chloro-N-[(3-chlorophenyl)(4,4-difluoro-1-hydroxycyclohexyl)methyl]-2-(trifluoromethyl)pyridine-4-carboxamide] — 4.8-fold lower, 210 nM
- CCn1cc(-c2cccc(C(NC(=O)c3ccc(C(F)(F)F)cc3C)C3(O)CCC(F)(F)CC3)c2)cn1 (centres unmarked) [Compound 184, N-{(4,4-difluoro-1-hydroxycyclohexyl)[3-(1-ethyl-1H-pyrazol-4-yl)phenyl]methyl}2-methyl-4-(trifluoromethyl)benzamide] — within 1.5-fold, 860 nM
- O=C(NC(c1cccc(Cl)c1F)C1(O)CCC(F)(F)CC1)c1cc(C(F)(F)F)ncc1Cl (single isomer, unassigned) [Compound 219, 5-chloro-N-[(3-chloro-2-fluorophenyl)(4,4-difluoro-1-hydroxycyclohexyl)methyl]-2-(trifluoromethyl)pyridine-4-carboxamide] — within 1.5-fold, 920 nM
- O=C(NC(c1cccc(-c2cccnc2)c1)C1(O)CCCC1)c1cccc(C(F)(F)F)c1Cl (centres unmarked) [Compound 3, 2-chloro-N-{(1-hydroxycyclopentyl)[3-(pyridin-3-yl)phenyl]methyl}-3-(trifluoromethyl)benzamide] — 2.8-fold lower, 360 nM
- O=C(NC(c1cccc(Cl)c1)C1(O)CCCCC1)c1nccc(C(F)(F)F)c1Cl (single isomer, unassigned) [Compound 229, 3-chloro-N-[(3-chlorophenyl)(1-hydroxycyclohexyl)methyl]-4-(trifluoromethyl)pyridine-2-carboxamide] — 36-fold lower, 28 nM
- O=C(NC(c1cc(Cl)ccn1)[C@]1(O)CC[C@@H](F)CC1)c1nccc2ccccc12 (single isomer, unassigned) [Compound 334, N-[(4-chloropyridin-2-yl)(cis-4-fluoro-1-hydroxycyclohexyl)methyl]isoquinoline-1-carboxamide] — within 1.5-fold, 900 nM
- CS(=O)(=O)c1ccc(C(F)(F)F)cc1C(=O)NC(c1cccc(F)c1Cl)[C@]1(O)CC[C@@H](F)CC1 (single isomer, unassigned) [Compound 372, N-[(2-chloro-3-fluorophenyl)(cis-4-fluoro-1-hydroxycyclohexyl)methyl]-2-(methylsulfonyl)-5-(trifluoromethyl)benzamide] — 24-fold lower, 41 nM
- O=C(NC(c1cccc(-c2ccncc2)c1)C1(O)CCCC1)c1nccc(C(F)(F)F)c1Cl (centres unmarked) [Compound 19, 3-chloro-N-{(1-hydroxycyclopentyl)[3-(pyridin-4-yl)phenyl]methyl}-4-(trifluoromethyl)pyridine-2-carboxamide] — 29-fold lower, 34 nM
- O=C(NC(c1ccnc(Cl)c1)[C@]1(O)CC[C@@H](F)CC1)c1nccc(C(F)(F)F)c1Cl (single isomer, unassigned) [Compound 258] — 3-fold higher, 3000 nM
- O=C(NC(c1ccccc1Cl)[C@]1(O)CC[C@@H](F)CC1)c1ccnc(C(F)(F)F)c1Cl (single isomer, unassigned) [Compound 211, 3-chloro-N-[(2-chlorophenyl)(cis-4-fluoro-1-hydroxycyclohexyl)methyl]-2-(trifluoromethyl)pyridine-4-carboxamide] — 5.9-fold lower, 170 nM
- CCn1cc(-c2cccc(C(NC(=O)c3cccc(C(F)(F)F)c3Cl)C3(O)CCC(F)(F)CC3)c2)cn1 (centres unmarked) [Compound 118, 2-chloro-N-{(4,4-difluoro-1-hydroxycyclohexyl)[3-(1-ethyl-1H-pyraozl-4-yl)phenyl]methyl}-3-(trifluoromethyl)benzamide] — 3.8-fold lower, 260 nM
- CCn1cc(-c2cccc(C(NC(=O)c3c(Cl)ccc(C(F)(F)F)c3Cl)C3(O)CCC(F)(F)CC3)c2)cn1 (single isomer, unassigned) [Compound 221, 2,6-dichloro-N-{(4,4-difluoro-1-hydroxycyclohexyl)[3-(1-ethyl-1H-pyrazol-4-yl)phenyl]methyl}-3-(trifluoromethyl)benzamide] — 5.6-fold higher, 5600 nM
- CCn1cc(-c2cccc(C(NC(=O)c3nccc(C(F)(F)F)c3Cl)C3(O)CCCC3)c2)cn1 (centres unmarked) [Compound 10, 3-chloro-N-{[3-(1-ethyl-1H-pyrazol-4-yl)phenyl](1-hydroxycyclopentyl)methyl}-4-(trifluoromethyl)pyridine-2-carboxamide] — 77-fold lower, 13 nM
- O=C(NC(c1cccc(-c2cnccn2)c1)C1(O)CCC(F)(F)CC1)c1nccc(C(F)(F)F)c1Cl (centres unmarked) [Compound 159, 3-chloro-N-{(4,4-difluoro-1-hydroxycyclohexyl)[3-(pyrazin-2-yl)phenyl]methyl}-4-(trifluoromethyl)pyridine-2-carboxamide] — 3.1-fold lower, 320 nM
- Cc1noc2nc(C3CC3)cc(C(=O)NC(c3cccc(F)c3Cl)[C@]3(O)CC[C@@H](F)CC3)c12 (single isomer, unassigned) [Compound 263, N-[(2-chloro-3-fluorophenyl)(cis-4-fluoro-1-hydroxycyclohexyl)methyl]-6-cyclopropyl-3-methyl[1,2]oxazolo[5,4-b]pyridine-4-carboxamide] — within 1.5-fold, 990 nM
